Experimental data from patent publication US6399628B1, “N-(aryl/heteroaryl) amino acid esters, pharmaceutical compositions comprising same, and methods for inhibiting alpha- amyloid peptide release and/or its synthesis by use of such compounds” (Athena Neurosciences, Inc., priority 1996, dated 2002).

Question: Which melting point does the source give for `CCOC(=O)C(CC)Nc1ccc2ccccc2c1` (stereo not shown) [Example 39, 2-[N-(naphth-2-yl)amino]butanoic acid ethyl ester] here?
Answer: Its melting point is 81 to 83 °C.
